The target in this experiment is T1, VraRC (C-terminal DNA-binding domain of response regulator VraR) (Staphylococcus aureus, UniProt Q7A4R9).
T1 construct: residues 138-209), C-terminal His-tag
The experiment is described as follows: LSPR (VraRC immobilized on NTA chip, […] fit); supported by 1H-15N HSQC NMR titration and FP inhibition of DNA binding (IC50 […]).

T1 sequence (Q7A4R9 138-209): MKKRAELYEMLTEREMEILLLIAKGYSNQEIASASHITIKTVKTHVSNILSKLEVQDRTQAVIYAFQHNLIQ

For orientation: Kd means the concentration at which binding is half-saturated. A higher Kd goes with lower affinity. TST1N-224 yielded a Kd of 23.4 ± 1.2 µM.

Source of the values: PMC11323011, “Combatting Antibiotic-Resistant Staphylococcus aureus: Discovery of TST1N-224, a Potent Inhibitor Targeting Response Regulator VraRC, through Pharmacophore-Based Screening and Molecular Characterizations” (Journal of Chemical Information and Modeling, 2024).
